The test system of data set [1] is Rattus norvegicus. Kind of data set: Anticoagulant activity in Sprague-Dawley rat assessed as change in factor 7 content in blood at 0.025 mg/kg, po after 4 days (reference value: 400%+/-33.2%). Type of data set: functional.
Data set [2] deals with Rattus norvegicus. The experiment in a line: Anticoagulant activity in Sprague-Dawley rat assessed as change in factor 7 content in blood at 0.25 mg/kg, po after 4 days (reference value: 400%+/-33.2%). Type of data set: functional.
Data set [3] relates to Rattus norvegicus. Kind of data set: Potentiation of warfarin-induced anticoagulant activity in Sprague-Dawley rat assessed as change in factor 10 level at 2.5 mg/kg, po after 10 days (Rvb =58.1%+/-1.8%). Type of data set: functional.
In data set [4] the test system is Rattus norvegicus. The experiment in a line: Anticoagulant activity in orally dosed Sprague-Dawley rat. The format is functional, organism-based.
Data set [5] concerns Rattus norvegicus. Kind of data set: Anticoagulant activity in Sprague-Dawley rat assessed as change in factor 10 content in blood at 0.025 mg/kg, po after 10 days (reference value: 58.1%+/-1.8 %). Type of data set: functional.
The subject of data set [6] is Rattus norvegicus. Kind of data set: Potentiation of warfarin-induced anticoagulant activity in Sprague-Dawley rat assessed as change in factor 7 level at 2.5 mg/kg, po after 10 days (reference value: 321.3 %+/-14.7%). Type of data set: functional.
Data set [7] has as its system Rattus norvegicus. Kind of data set: Anticoagulant activity in Sprague-Dawley rat assessed as change in prothrombin time at 0.25 mg/kg, po after 4 days ([…]). Type of data set: functional.
Data set [8] relates to Rattus norvegicus. Kind of data set: Anticoagulant activity in Sprague-Dawley rat assessed as change in factor 10 content in blood at 2.5 mg/kg, po after 4 days (reference value: 60.6%+/-3.0 %). The format is functional.
The subject of data set [9] is Rattus norvegicus. Kind of data set: Potentiation of warfarin-induced anticoagulant activity in Sprague-Dawley rat assessed as change in factor 7 level at 2.5 mg/kg, po after 4 days (reference value: 400 %+/-33.2%). Type of data set: functional.
For data set [10], the system named is Rattus norvegicus. Kind of data set: Anticoagulant activity in Sprague-Dawley rat assessed as change in factor 10 content in blood at 0.25 mg/kg, po after 10 days (reference value: 58.1%+/-1.8 %). The format is functional.
Data set [11] deals with Rattus norvegicus. Kind of data set: Anticoagulant activity in Sprague-Dawley rat assessed as change in factor 10 content in blood at 0.025 mg/kg, po after 4 days (reference value: 60.6%+/-3.0 %). Type of data set: functional.
Data set [12] concerns Rattus norvegicus. The experiment in a line: Anticoagulant activity in Sprague-Dawley rat assessed as reduction factor 7 content in blood at 2.5 mg/kg, po after 10 days (reference value: 321.3%+/-14.7 %). Details: scale not given: the % may be the effect or the level left. Type of data set: functional.
The subject of data set [13] is Rattus norvegicus. Kind of data set: Potentiation of warfarin-induced anticoagulant activity in Sprague-Dawley rat assessed as change in prothrombin time at 2.5 mg/kg, po after 10 days (Rvb= 12.9+/-0.7 sec). The format is functional.
Data set [14] deals with Rattus norvegicus. Kind of data set: Anticoagulant activity in Sprague-Dawley rat assessed as change in factor 10 content in blood at 0.25 mg/kg, po after 4 days (reference value: 60.6%+/-3.0 %). The format is functional.
Data set [15] relates to Rattus norvegicus. Kind of data set: Anticoagulant activity in Sprague-Dawley rat assessed as change in factor 7 content in blood at 0.25 mg/kg, po after 10 days (reference value: 321.3%+/-14.7 %). Type of data set: functional.
Data set [16] is filed under the species Rattus norvegicus. Kind of data set: Cytotoxicity in Sprague-Dawley rat. The format is organism-based. The note with it: in vivo.
Data set [17] concerns Rattus norvegicus. The experiment in a line: Anticoagulant activity in Sprague-Dawley rat assessed as change in factor 7 content in blood at 0.025 mg/kg, po after 10 days (reference value: 321.3%+/-14.7 %). The format is functional.
Data set [18] relates to Rattus norvegicus. The experiment in a line: Anticoagulant activity in Sprague-Dawley rat assessed as change in factor 10 content in blood at 2.5 mg/kg, po after 10 days (reference value: 58.1%+/-1.8 %). Type of data set: functional.
For data set [19], the system named is Rattus norvegicus. The experiment in a line: Potentiation of warfarin-induced anticoagulant activity in Sprague-Dawley rat assessed as change in factor 10 level at 2.5 mg/kg, po after 4 days (Rvb =60.6%+/-3.0%). Type of data set: functional.
Data set [20] deals with Rattus norvegicus. The experiment in a line: Anticoagulant activity in Sprague-Dawley rat assessed as change in prothrombin time at 0.025 mg/kg, po after 10 days ([…]). The format is functional.
Data set [21] deals with Rattus norvegicus. Kind of data set: Anticoagulant activity in Sprague-Dawley rat assessed as change in prothrombin time at 2.5 mg/kg, po after 4 days ([…]). The format is functional.
The subject of data set [22] is Rattus norvegicus. Kind of data set: Anticoagulant activity in Sprague-Dawley rat assessed as change in factor 7 content in blood at 2.5 mg/kg, po after 4 days (reference value: 400%+/-33.2%). Type of data set: functional.
For data set [23], the system named is Rattus norvegicus. The experiment in a line: Anticoagulant activity in Sprague-Dawley rat assessed as change in prothrombin time at 2.5 mg/kg, po after 10 days (Rvb=12.9+/-0.7 sec). The format is functional.
Data set [24] relates to Rattus norvegicus. Kind of data set: Anticoagulant activity in Sprague-Dawley rat assessed as change in prothrombin time at 0.25 mg/kg, po after 10 days (Rvb=12.9+/-0.7 sec). Type of data set: functional.
Data set [25] concerns Rattus norvegicus. Kind of data set: Potentiation of warfarin-induced anticoagulant activity in Sprague-Dawley rat assessed as change in prothrombin time at 2.5 mg/kg, po after 4 days (Rvb= 12.8+/-0.5 sec). The format is functional.
Data set [26] relates to Rattus norvegicus. The experiment in a line: Anticoagulant activity in Sprague-Dawley rat assessed as change in prothrombin time at 0.025 mg/kg, po after 4 days (Rvb=12.8+/-0.5 sec). Type of data set: functional.

Molecules are shown by their SMILES. Calls of active or inactive are those of the source. The calls are words filed in the database; no cut-off is given here.

Three compounds from ChEMBL document CHEMBL1155392, “New adjuvants to enhance anticoagulant activity of warfarin” (Bioorg Med Chem Lett, 2010) can be followed below.

For `CC(=O)Oc1c2c(c(OC(C)=O)c3ccccc13)[C@]1(C)C=C[C@]2(C)C1`, the Activity in data set [1] is reported as 346.8%; in [2], 351.3%; in [3], 7.7%; in data set [5], 68%; in data set [6], 35%; in data set [8], 64.3%. Also, the Activity in [9] came to 20.3%; in [10], 61.2%; in data set [11] it was 74.5%; in data set [12], 286.8%; in [14] it was 65.3%; in data set [15], 304.7%. Moreover, the Activity result in data set [16] is reported as “Not Active”; in [17], 364%; in data set [18] it was 61%; in data set [19] it was 4.8%; in [22], 370.8%. The outcome in [4] was inactive. Besides, the PT worked out at 11.6 s in [7]; 35.4 s in [13]; 11.4 s in data set [20]; 11.8 s in data set [21]; 11.6 s in data set [23]; 11.7 s in [24]. Moreover, the PT came to 40.5 s in [25] and 11.2 s in data set [26].
`CC(=O)Oc1c2c(c(OC(C)=O)c3ccccc13)[C@@]1(C)C[C@]2(C)[C@]2(C)O[C@@]21C`: the Activity in data set [1] was determined as 366.3%; in data set [2] it was 334.3%; in data set [3], 3.6%; in data set [5], 64.2%; in [6], 18.4%; in data set [8] it was 61%. The Activity stood at 264% in [9]; 59.8% in data set [10]; 73.3% in [11]; 285.8% in [12]; 61% in data set [14]; 295.2% in [15]. Besides, the Activity result was “Not Active” in data set [16]; 350.3% in [17]; 61% in data set [18]; 58.8% in data set [19]; 395.5% in [22]. The result in data set [4] was inactive. In addition, the PT in data set [7] is 11.6 s; in data set [13], 108.4 s; in [20], 11.6 s; in [21], 12.7 s; in data set [23], 11.6 s; in data set [24], 11.6 s. Moreover, the PT in data set [25] is reported as 12 s; in data set [26], 11.4 s.
On to `CC(=O)CC(c1ccccc1)c1c(O)c2ccccc2oc1=O` (stereo not drawn) [WARFARIN], for which the Activity worked out at 29.5% in data set [2], 14.9% in data set [10], 10% in [14] and 56.2% in [15]. For the same compound, the PT is given as 37 s in [7] and 24.4 s in data set [24].
